According to patent publication US7538103B2, “Compounds for the treatment of hepatitis C” (Bristol-Myers Squibb Company, priority 2007, dated 2009):
Like-named read-outs stand apart in the source and are kept apart here.

Key:
[1] = molecular target: T1, HCV NS5B (Hepatitis C virus genotype 1b, UniProt Q9WMX2); assay: Modified HCV NS5B RdRp enzyme assay (preincubation protocol); assay type: biochemical
T1 construct: The protein was expressed with an 18 amino acid C-terminal truncation to enhance the solubility; made in house; host or cells: E. coli BL21(DE3)
T1 sequence (Q9WMX2 2420-2992): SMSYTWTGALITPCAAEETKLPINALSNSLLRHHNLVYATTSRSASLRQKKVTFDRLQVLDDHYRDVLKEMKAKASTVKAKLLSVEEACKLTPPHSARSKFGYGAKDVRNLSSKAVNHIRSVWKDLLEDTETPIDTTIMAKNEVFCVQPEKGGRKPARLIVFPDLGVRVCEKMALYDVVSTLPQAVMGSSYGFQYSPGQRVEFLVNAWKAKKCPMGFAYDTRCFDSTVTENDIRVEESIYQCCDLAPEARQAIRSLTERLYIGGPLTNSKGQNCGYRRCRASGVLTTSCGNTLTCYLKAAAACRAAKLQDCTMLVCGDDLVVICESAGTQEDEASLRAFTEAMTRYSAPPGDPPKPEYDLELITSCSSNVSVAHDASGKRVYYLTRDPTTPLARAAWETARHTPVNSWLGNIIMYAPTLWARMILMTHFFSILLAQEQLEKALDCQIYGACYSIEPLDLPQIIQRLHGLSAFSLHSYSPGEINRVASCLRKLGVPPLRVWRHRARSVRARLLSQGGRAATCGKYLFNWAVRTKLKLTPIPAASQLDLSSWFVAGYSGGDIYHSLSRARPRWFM
Description: HCV NS5B RdRp cloning, expression, and purification. The cDNA encoding the NS5B protein of HCV, genotype 1b, was cloned into the pET21a expression vector. The protein was expressed with an 18 amino acid C-terminal truncation to enhance the solubility. The E. coli competent cell line BL21(DE3) was used for expression of the protein. Cultures were grown at 37° C. for ˜4 hours until the cultures reached an optical density of 2.0 at 600 nm. The cultures were cooled to 20° C. and induced with 1 mM IPTG. Fresh ampicillin was added to a final concentration of 50 μg/ml and the cells were grown overnight at 20° C.
Cell pellets (3 L) were lysed for purification to yield 15-24 mgs of purified NS5B. The lysis buffer consisted of 20 mM Tris-HCl, pH 7.4, 500 mM NaCl, 0.5% triton X-100, 1 mM DTT, 1 mM EDTA, 20% glycerol, 0.5 mg/ml lysozyme, 10 mM MgCl2, 15 ug/ml deoxyribonuclease I, and Complete TM protease inhibitor tablets (Roche). After addition of the lysis buffer, frozen cell pellets were resuspended using a tissue homogenizer. To reduce the viscosity of the sample, aliquots of the lysate were sonicated on ice using a microtip attached to a Branson sonicator. The sonicated lysate was centrifuged at 100,000×g for 1 hr at 4° C. and filtered through a 0.2 μm filter unit (Corning).
The protein was purified using three sequential chromatography steps: Heparin sepharose CL-6B, polyU sepharose 4B, and Hitrap SP sepharose (Pharmacia). The chromatography buffers were identical to the lysis buffer but contained no lysozyme, deoxyribonuclease I, MgCl2 or protease inhibitor and the NaCl concentration of the buffer was adjusted according to the requirements for charging the protein onto the column. Each column was eluted with a NaCl gradient which varied in length from 5-50 column volumes depending on the column type. After the final chromatography step, the resulting purity of the enzyme is >90% based on SDS-PAGE analysis. The enzyme was aliquoted and stored at −80° C.
Standard HCV NS5B RdRp enzyme assay. HCV RdRp genotype 1b assays were run in a final volume of 60 μl in 96 well plates (Costar 3912). The assay buffer is composed of 20 mM Hepes, pH 7.5, 2.5 mM KCl, 2.5 mM MgCl2, 1 mM DTT, 1.6 U RNAse inhibitor (Promega N2515), 0.1 mg/ml BSA (Promega R3961), and 2% glycerol. All compounds were serially diluted (3-fold) in DMSO and diluted further in water such that the final concentration of DMSO in the assay was 2%. HCV RdRp genotype 1b enzyme was used at a final concentration of 28 nM. A polyA template was used at 6 nM, and a biotinylated oligo-dT12 primer was used at 180 nM final concentration. Template was obtained commercially (Amersham 27-4110). Biotinylated primer was prepared by Sigma Genosys. 3H-UTP was used at 0.6 μCi (0.29 μM total UTP). Reactions were initiated by the addition of enzyme, incubated at 30° C. for 60 min, and stopped by adding 25 μl of 50 mM EDTA containing SPA beads (4 μg/μl, Amersham RPNQ 0007). Plates were read on a Packard Top Count NXT after >1 hr incubation at room temperature.
Modified HCV NS5B RdRp enzyme assay. A modified enzyme assay was performed essentially as described for the standard enzyme assay except for the following: The biotinylated oligo dT12 primer was precaptured on streptavidin-coated SPA beads by mixing primer and beads in assay buffer and incubating at room temperature for one hour. Unbound primer was removed after centrifugation. The primer-bound beads were resuspended in 20 mM Hepes buffer, pH 7.5 and used in the assay at final concentrations of 20 nM primer and 0.67 μg/μl beads. Order of addition in the assay: enzyme (14 nM) was added to diluted compound followed by the addition of a mixture of template (0.2 nM), 3H-UTP (0.6 μCi, 0.29 μM), and primer-bound beads, to initiate the reaction; concentrations given are final. Reactions were allowed to proceed for 4 hours at 30° C.
IC50 values for compounds were determined using seven different [I]. […]

[2] = tested on: HCV replicon cells; assay: HCV replicon FRET assay; assay type: cell-based; conditions: Hepatitis C virus
Text: FRET Assay Preparation. To perform the HCV FRET screening assay, 96-well cell culture plates were used. The FRET peptide (Anaspec, Inc.) (Taliani et al., Anal. Biochem. 1996, 240, 60-67) contains a fluorescence donor, EDANS, near one end of the peptide and an acceptor, DABCYL, near the other end. The fluorescence of the peptide is quenched by […] resonance energy transfer (RET) between the donor and the acceptor, but as the NS3 protease cleaves the peptide the products are released from RET quenching and the fluorescence of the donor becomes apparent. The assay reagent was made as follows: 5X cell Luciferase cell culture lysis reagent from Promega (#E153A) diluted to 1× with dH2O, NaCl added to 150 mM final, the FRET peptide diluted to 20 μM final from a 2 mM stock.
To prepare plates, HCV replicon cells, with or without a Renilla luciferase reporter gene, were trypsinized and placed into each well of a 96-well plate with titrated test compounds added in columns 3 through 12; columns 1 and 2 contained a control compound (HCV protease inhibitor), and the bottom row contained cells without compound. The plates were then placed in a CO2 incubator at 37° C.
Assays. Subsequent to addition of the test compounds described above (FRET Assay Preparation), at various times the plate was removed and Alamar blue solution (Trek Diagnostics, #00-100) was added per well as a measure of cellular toxicity. After reading in a Cytoflour 4000 instrument (PE Biosystems), plates were rinsed with PBS and then used for FRET assay by the addition of 30 ul of the FRET peptide assay reagent described above (FRET Assay Preparation) per well. The plate was then placed into the Cytoflour 4000 instrument which had been set to 340 excite/490 emission, automatic mode for 20 cycles and the plate read in a kinetic mode. Typically, the signal to noise using an endpoint analysis after the reads was at least three-fold. Alternatively, after Alamar blue reading, plates were rinsed with PBS, 50 ul of DMEM (high glucose) without phenol red was added and plates were then used for luciferase assay using the Promega Dual-Glo Luciferase Assay System.
Compound analysis was determined by quantification of the relative HCV replicon inhibition and the relative cytotoxicity values. To calculate cytoxicity values, the average Alamar Blue fluorescence signals from the control wells were set as 100% non-toxic. The individual signals in each of the compound test wells were then divided by the average control signal and multiplied by 100% to determine […]. To calculate the HCV replicon inhibition values, an average background value was obtained from the two wells containing the highest amount of HCV protease inhibitor at the end of the assay period. These numbers were similar to those obtained from naïve Huh-7 cells.
The background numbers were then subtracted from the average signal obtained from the control wells and this number was used as 100% activity. The individual signals in each of the compound test wells were then divided by the averaged control values after background subtraction and multiplied by 100% to determine percent activity. EC50 values for a protease inhibitor titration were calculated as the concentration which caused a 50% reduction in FRET or luciferase activity. The two numbers generated for the compound plate, percent cytoxicity and percent activity were used to determine compounds of interest for further analysis.

[3] = determined using the preincubation protocol, read-out: IC50
[4] = determined using the FRET assay, read-out: EC50

SMILES	IC50 [1, 3]	EC50 [2, 4]	IC50 [1]	EC50 [2]
COc1ccc2c(c1)C1CC1(CO)Cn1c-2c(C2CCCCC2)c2ccc(C(=O)NS(=O)(=O)N(C)C)cc21 (centres unmarked)	1 to 500 nM	1 to 500 nM		
COc1ccc2c(c1)C1CC1(COC(=O)N1CCOCC1)Cn1c-2c(C2CCCCC2)c2ccc(C(=O)NS(=O)(=O)N(C)C)cc21 (centres unmarked)	1 to 500 nM	1 to 500 nM		
CCN(CC12CC1c1cc(OC)ccc1-c1c(C3CCCCC3)c3ccc(C(=O)NS(=O)(=O)N(C)C)cc3n1C2)C(C)=O (centres unmarked)	1 to 500 nM	1 to 500 nM		
COc1ccc2c(c1)C1CC1(CN1CCOCC1)Cn1c-2c(C2CCCCC2)c2ccc(C(=O)NS(=O)(=O)N(C)C)cc21 (centres unmarked)	1 to 500 nM	1 to 500 nM		
COc1ccc2c(c1)C1CC1(CC(=O)N1C3CCC1CN(C)C3)Cn1c-2c(C2CCCCC2)c2ccc(C(=O)NS(=O)(=O)N(C)C)cc21 (centres unmarked)			> 120 nM	1 to 500 nM
COc1ccc2c(c1)C1CC1(CC(=O)N1C[C@@H](C)O[C@H](C)C1)Cn1c-2c(C2CCCCC2)c2ccc(C(=O)NS(=O)(=O)N(C)C)cc21 (some centres unmarked)	1 to 500 nM	1 to 500 nM		
COc1ccc2c(c1)C1CC1(CC(=O)N1CCOCC1)Cn1c-2c(C2CCCCC2)c2ccc(C(=O)NS(=O)(=O)N(C)C)cc21 (centres unmarked)	1 to 500 nM	1 to 500 nM		
COC(=O)CC12CC1c1cc(OC)ccc1-c1c(C3CCCCC3)c3ccc(C(=O)NS(=O)(=O)N(C)C)cc3n1C2 (centres unmarked)	1 to 500 nM	> 120 nM		
COc1ccc2c(c1)C1CC1(CC(=O)O)Cn1c-2c(C2CCCCC2)c2ccc(C(=O)NS(=O)(=O)N(C)C)cc21 (centres unmarked)	1 to 500 nM	500 to 1000 nM		
COC(=O)CC12CC1c1cc(OC)ccc1-c1c(C3CCCCC3)c3ccc(C(=O)O)cc3n1C2 (centres unmarked)	1 to 500 nM	1 to 500 nM		
